In patent US9120812B2, “Pyrimidooxazocine derivatives as mTOR-inhibitors” (SANOFI, priority 2012, dated 2015):
Like-named read-outs stand apart in the source and are kept apart here.

Key:
[1] = molecular target: mTOR (human recombinant aa mTOR 1360-2549) (Homo sapiens (Human), UniProt P42345); experiment: mTOR enzymatic test by TR-FRET (phosphorylation of GFP-4EBP1); format: biochemical
Procedure, shortened: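 After a 30 min room-temperature kinase reaction, EDTA (10 mM final) and Tb-labelled phospho-Thr46 antibody (2 nM final) were added and incubated 60 min. Energy transfer from Tb to phosphorylated GFP-4EBP1 was read at 340 nm excitation, emissions 490/520 nm. Values derive from the 520/490 fluorescence ratio.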

PI3Kα (p110α/p85α) = PI3Kα (p110α/p85α) (Homo sapiens (Human), UniProt P42336); experiment: PI3Kα enzymatic test by measuring the consumption of ATP; format: biochemical
Sequence of PI3Kα (p110α/p85α) (P42336 whole entry): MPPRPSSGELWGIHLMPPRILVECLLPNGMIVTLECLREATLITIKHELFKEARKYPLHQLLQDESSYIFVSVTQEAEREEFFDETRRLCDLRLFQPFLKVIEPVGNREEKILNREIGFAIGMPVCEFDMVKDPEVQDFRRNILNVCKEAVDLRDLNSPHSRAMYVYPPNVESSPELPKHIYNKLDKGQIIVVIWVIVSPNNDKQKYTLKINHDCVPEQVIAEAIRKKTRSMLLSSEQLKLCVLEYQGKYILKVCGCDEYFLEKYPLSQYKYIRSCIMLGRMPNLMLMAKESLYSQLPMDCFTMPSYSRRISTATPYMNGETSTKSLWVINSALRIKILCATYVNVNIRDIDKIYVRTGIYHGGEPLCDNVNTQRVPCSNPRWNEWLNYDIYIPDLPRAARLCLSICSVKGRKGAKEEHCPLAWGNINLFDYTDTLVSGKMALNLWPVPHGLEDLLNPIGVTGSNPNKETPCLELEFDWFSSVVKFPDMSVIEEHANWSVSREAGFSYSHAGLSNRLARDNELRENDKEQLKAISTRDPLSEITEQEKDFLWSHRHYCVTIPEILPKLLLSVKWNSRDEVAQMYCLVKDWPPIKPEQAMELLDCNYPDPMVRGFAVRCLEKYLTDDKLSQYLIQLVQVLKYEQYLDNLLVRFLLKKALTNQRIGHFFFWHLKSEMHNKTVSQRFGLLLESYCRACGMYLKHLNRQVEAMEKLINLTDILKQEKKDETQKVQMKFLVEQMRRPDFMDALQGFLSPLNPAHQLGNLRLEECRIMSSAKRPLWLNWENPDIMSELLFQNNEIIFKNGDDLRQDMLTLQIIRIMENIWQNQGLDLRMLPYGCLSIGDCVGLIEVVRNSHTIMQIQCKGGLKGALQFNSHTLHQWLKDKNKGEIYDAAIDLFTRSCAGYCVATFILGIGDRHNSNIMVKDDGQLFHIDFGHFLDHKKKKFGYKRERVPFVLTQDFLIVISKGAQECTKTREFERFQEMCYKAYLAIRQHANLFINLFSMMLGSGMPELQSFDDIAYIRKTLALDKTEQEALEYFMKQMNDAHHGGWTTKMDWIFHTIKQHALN
Sequence of PI3Kα (p110α/p85α) (P27986 whole entry partner): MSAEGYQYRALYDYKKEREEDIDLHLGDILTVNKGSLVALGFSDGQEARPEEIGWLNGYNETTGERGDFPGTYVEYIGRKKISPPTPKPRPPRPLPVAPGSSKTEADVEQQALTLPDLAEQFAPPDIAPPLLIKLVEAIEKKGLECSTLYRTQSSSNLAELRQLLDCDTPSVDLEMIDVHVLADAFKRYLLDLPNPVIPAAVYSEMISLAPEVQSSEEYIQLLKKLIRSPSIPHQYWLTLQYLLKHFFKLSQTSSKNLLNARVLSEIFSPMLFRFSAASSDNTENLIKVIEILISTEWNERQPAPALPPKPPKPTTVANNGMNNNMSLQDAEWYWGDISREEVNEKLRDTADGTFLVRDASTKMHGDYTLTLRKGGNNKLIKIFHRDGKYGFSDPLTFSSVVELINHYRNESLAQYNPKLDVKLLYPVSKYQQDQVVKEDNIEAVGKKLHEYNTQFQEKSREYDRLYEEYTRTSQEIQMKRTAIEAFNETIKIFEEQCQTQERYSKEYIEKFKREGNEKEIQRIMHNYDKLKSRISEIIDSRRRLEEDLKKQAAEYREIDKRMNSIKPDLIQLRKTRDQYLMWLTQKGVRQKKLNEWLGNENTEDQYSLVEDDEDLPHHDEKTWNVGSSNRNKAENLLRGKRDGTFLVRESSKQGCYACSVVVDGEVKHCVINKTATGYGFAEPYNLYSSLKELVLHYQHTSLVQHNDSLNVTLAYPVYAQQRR
Procedure, shortened: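 ATP consumption read out by KinaseGlo luminescence after a 90 min reaction of 1.7 μg/ml PI3Kα (p110α/p85α) with 2 μM ATP and 50 μM PIP2, buffered at pH 7.5 (Tris, 10 mM MgCl2, 1 mM EGTA, 0.03% Chaps, 1 mM DTT). Threefold dilution series over ≥10 000-fold range yield IC50.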

U87MG tumour cells = experiment: Test of in vitro proliferation of U87MG tumour cells; format: cell-based; conditions: U87MG cells, 72 hours, read-out: U87 Cell Proliferation IC50
Method: Model 4: Test of in vitro Proliferation of U87MG Tumour Cells.
The cell growth is determined with the reagent CellTiter 96 AQueous One Solution Cell Proliferation Assay from Promega (Cat. No. G3581).

[2] = Homo sapiens, U-87 MG, read-out: U87 Akt-pS473 % Inhibition or IC50, nM (IC50), U87MG cells

Sequence of mTOR (human recombinant aa mTOR 1360-2549) (P42345 1360-2549): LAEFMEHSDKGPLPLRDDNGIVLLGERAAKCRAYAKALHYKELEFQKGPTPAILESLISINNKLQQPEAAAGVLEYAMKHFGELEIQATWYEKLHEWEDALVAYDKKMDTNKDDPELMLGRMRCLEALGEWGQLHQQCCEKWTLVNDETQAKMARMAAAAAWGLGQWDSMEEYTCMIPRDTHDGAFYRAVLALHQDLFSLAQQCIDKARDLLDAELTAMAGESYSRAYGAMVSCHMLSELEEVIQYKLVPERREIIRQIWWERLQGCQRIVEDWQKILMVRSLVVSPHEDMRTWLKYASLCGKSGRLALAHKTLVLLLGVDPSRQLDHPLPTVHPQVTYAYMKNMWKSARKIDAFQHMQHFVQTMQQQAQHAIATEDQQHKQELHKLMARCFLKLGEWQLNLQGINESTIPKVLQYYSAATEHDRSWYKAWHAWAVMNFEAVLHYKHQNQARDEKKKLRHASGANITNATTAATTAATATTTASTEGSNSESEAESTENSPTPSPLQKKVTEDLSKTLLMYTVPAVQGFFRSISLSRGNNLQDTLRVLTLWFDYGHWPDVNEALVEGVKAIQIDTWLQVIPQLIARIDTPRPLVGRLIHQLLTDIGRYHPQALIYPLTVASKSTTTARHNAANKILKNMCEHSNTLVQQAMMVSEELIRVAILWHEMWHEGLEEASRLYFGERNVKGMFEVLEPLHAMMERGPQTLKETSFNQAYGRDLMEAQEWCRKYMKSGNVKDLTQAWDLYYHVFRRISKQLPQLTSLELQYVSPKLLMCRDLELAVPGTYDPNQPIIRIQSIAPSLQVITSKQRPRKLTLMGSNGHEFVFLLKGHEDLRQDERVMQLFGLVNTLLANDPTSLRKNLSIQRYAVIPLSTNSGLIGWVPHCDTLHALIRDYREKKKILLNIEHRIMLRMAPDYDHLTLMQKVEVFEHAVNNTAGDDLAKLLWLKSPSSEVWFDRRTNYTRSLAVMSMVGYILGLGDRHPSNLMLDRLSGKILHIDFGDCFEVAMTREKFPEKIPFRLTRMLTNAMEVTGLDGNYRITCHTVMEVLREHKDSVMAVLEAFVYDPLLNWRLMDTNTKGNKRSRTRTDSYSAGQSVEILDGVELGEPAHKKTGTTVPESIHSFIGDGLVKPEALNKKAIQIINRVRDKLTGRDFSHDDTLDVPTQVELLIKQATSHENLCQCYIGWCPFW

| SMILES | IC50 [1] | PI3Ka IC50 (PI3Kα (p110α/p85α)) | IC50 (U87MG tumour cells) | IC50 (Akt-pS473 in U87MG cells; read-out: U87 Akt-pS473 % Inhibition or IC50, nM (IC50), U87MG cells) | IC50 (U87MG tumour cells; Homo sapiens, U-87 MG, 72 h) | IC50 (Akt-pS473 in U87MG cells; [2]) |
| --- | --- | --- | --- | --- | --- | --- |
| CCN1CC(C)(C)Oc2nc(N3CCOC[C@@H]3C)nc(-c3ccc(NC(=O)Nc4ccc(C)cn4)cc3)c2C1=O [Example 169, 1-{4-[6-Ethyl-8,8-dimethyl-2-((S)-3-methylmorpholin-4-yl)-5-oxo-5,6,7,8-tetrahydro-9-oxa-1,3,6-triazabenzocyclohepten-4-yl]phenyl}-3-(5-methylpyridin-2-yl)urea] | 31 nM | 1450 nM | 299 nM | 26 nM | – | – |
| CCN1CC(C)(C)Oc2nc(N3CC4CCC(C3)O4)nc(-c3ccc(NC(=O)Nc4ccc(OC)nn4)c(F)c3)c2C1=O [Example 140, 1-{4-[6-Ethyl-8,8-dimethyl-2-(8-oxa-3-azabicyclo[3.2.1]oct-3-yl)-5-oxo-5,6,7,8-tetrahydro-9-oxa-1,3,6-triazabenzocyclohepten-4-yl]-2-fluorophenyl}-3-(6-methoxypyridazin-3-yl)urea] | 45 nM | >10000 nM | – | – | 472 nM | 507 nM |
| CNC(=O)Nc1ccc(-c2nc(N3CC4CCC(C3)O4)nc3c2C(=O)N(C)CC(C)(C)O3)cc1 [Example 38, 1-Methyl-3-{4-[6,8,8-trimethyl-2-(8-oxa-3-azabicyclo[3.2.1]oct-3-yl)-5-oxo-5,6,7,8-tetrahydro-9-oxa-1,3,6-triazabenzocyclohepten-4-yl]phenyl}urea] | 22 nM | 3450 nM | – | – | 218 nM | 23 nM |
| CCN1CC(C)(C)Oc2nc(N3CC4CCC(C3)O4)nc(-c3ccc(NC(=O)Nc4ccnc(N5CCN(S(C)(=O)=O)CC5)c4)c(F)c3)c2C1=O [Example 80, 1-{4-[6-Ethyl-8,8-dimethyl-2-(8-oxa-3-azabicyclo[3.2.1]oct-3-yl)-5-oxo-5,6,7,8-tetrahydro-9-oxa-1,3,6-triazabenzocyclohepten-4-yl]-2-fluorophenyl}-3-[2-(4-methanesulfonylpiperazin-1-yl)pyridin-4-yl]urea] | 72 nM | >10000 nM | – | – | 151 nM | 48 nM |
| CC[C@H]1COCCN1c1ccc(NC(=O)Nc2ccc(-c3nc(N4C5CCC4COC5)nc4c3C(=O)N(CC)CC(C)(C)O4)cc2F)cn1 [Example 249, 1-{4-[6-Ethyl-8,8-dimethyl-2-(3-oxa-8-azabicyclo[3.2.1]oct-8-yl)-5-oxo-5,6,7,8-tetrahydro-9-oxa-1,3,6-triazabenzocyclohepten-4-yl]-2-fluorophenyl}-3-[6-((S)-3-ethylmorpholin-4-yl)pyridin-3-yl]urea] | 365 nM | >10000 nM | – | – | 29 nM | 27 nM |
| CC[C@H]1COCCN1c1nc2c(c(-c3ccc(NC(=O)Nc4ccc(C)nc4)c(F)c3)n1)C(=O)N(CC)CC(C)(C)O2 [Example 37, 1-{4-[6-Ethyl-2-((S)-3-ethylmorpholin-4-yl)-8,8-dimethyl-5-oxo-5,6,7,8-tetrahydro-9-oxa-1,3,6-triazabenzocyclohepten-4-yl]-2-fluorophenyl}-3-(6-methylpyridin-3-yl)urea] | 122 nM | 8630 nM | – | – | 869 nM | 54 nM |
| CCN1CC(C)(C)Oc2nc(N3CCOC[C@@H]3C)nc(-c3ccc(NC(=O)Nc4ccon4)c(F)c3)c2C1=O [Example 159, 1-{4-[6-Ethyl-8,8-dimethyl-2-((S)-3-methylmorpholin-4-yl)-5-oxo-5,6,7,8-tetrahydro-9-oxa-1,3,6-triazabenzocyclohepten-4-yl]-2-fluorophenyl}-3-isoxazol-3-ylurea] | 18 nM | 561 nM | – | – | 98 nM | 21 nM |
| CCN1CC(C)(C)Oc2nc(N3CCOC[C@@H]3C)nc(-c3ccc(NC(=O)Nc4ccc(N5CC6CCC(C5)O6)nc4)c(F)c3)c2C1=O [Example 258, 1-{4-[6-Ethyl-8,8-dimethyl-2-((S)-3-methylmorpholin-4-yl)-5-oxo-5,6,7,8-tetrahydro-9-oxa-1,3,6-triazabenzocyclohepten-4-yl]-2-fluorophenyl}-3-[6-(8-oxa-3-azabicyclo[3.2.1]oct-3-yl)pyridin-3-yl]urea] | 53 nM | 2940 nM | – | – | 125 nM | 20 nM |
